Assay results reported in a melting point compilation (Tetko et al.; mined from patent text by program, amines drawn as free bases though some values may be those of a salt).

With `CC[C@H](CS[C@@H](CCc1ccccc1C(C)(C)O)c1cccc(C=Cc2ccc3ccc(Cl)cc3n2)c1)C(=O)O` the melting point was 115 to 117 °C.
`CC(CN1CC=C(c2cccs2)CC1)N(C(=O)C1CC=CCC1)c1ccccn1` (stereo unspecified) showed a melting point of 92 to 96 °C.
For `CCC1CC2C3CCC(C(C)CC(C)C(=O)O)C3(C)CCC2C2(C)CCC(O)CC12` (stereo unspecified), the melting point was 138 °C.
`Cc1cc2c(cc1-n1cccc1)OC(=O)C2C` (stereo unspecified) showed a melting point of 61 to 63 °C.
`CCOCCOC(=O)C1=C(C)NC(COC(N)=O)=C(C(=O)OCC)C1c1cccc([N+](=O)[O-])c1` (stereo unspecified) showed a melting point of 135 to 138 °C.
Work on `Cc1nc2c3c(ccc2[nH]1)[C@@H](O)[C@H](O)[C@@H](c1ccccc1)O3` yielded a melting point of 163 °C.
`O=CN(O)C(CCCO)CS(=O)(=O)c1ccc(-c2ccc(Cl)cc2)cc1` (stereo unspecified) showed a melting point of 160 °C.
In the case of `CON=C(C(N)=O)c1cnccn1`, the melting point is reported as 188 to 190 °C.
In the case of `CCn1cc(C(=O)O)c(=O)c2cc(F)c(N3CCCC(O)C3)c(F)c21` (stereo unspecified), the melting point is reported as 232 to 234 °C.
Molecule `C#Cc1ccc(C)cc1CC(=O)O` has a melting point of 98 to 101 °C.
For `Cc1ccccc1-c1c(NC(=O)Nc2c(C)cccc2C(C)C)c(=O)oc2ccc(Cl)cc12`, the melting point was 237 to 238 °C.
Work on `Cc1c(F)c(=O)n(-c2cc(OC(C)C)c(Cl)cc2F)c(=O)n1C` yielded a melting point of 139 to 141 °C.
Work on `Fc1ccc(-c2cc(C(F)(F)F)n3cnc(-c4cccnc4)c3n2)cc1Cl` yielded a melting point of 188 °C.
In the case of `CCC1CC(=O)N(Cc2cccc(NS(C)(=O)=O)c2)N=C1c1ccc(OC)c(OC)c1` (stereo unspecified), the melting point is reported as 126 °C.
In the case of `CCc1cccc(C)c1CNc1nc(C(=O)N2CCCC2)cn2c(C)c(C)nc12`, the melting point is reported as 197 °C.
`Cc1ccc(Cc2cnc(NCCCNc3ncccc3Cl)[nH]c2=O)cn1` showed a melting point of 91 to 94 °C.
For `COCOc1cc(OC)ccc1C(=O)c1cccc(OCc2nc(-c3ccccc3)oc2C)c1`, the melting point was 117 to 118 °C.
`Cc1ccc(C(=O)[C@@H]2[C@@H](C)CCCC2(C)C)cc1Cl` gave a melting point of 59 to 60 °C.
Work on `CN(C)Cn1cnc2c1c(=O)n(C)c(=O)n2C` yielded a melting point of 121 to 123 °C.
For `ON=C1CCCCCCC1Cc1ccccc1` (stereo unspecified), the melting point was 117 to 119 °C.
`CN1Cc2c(c3cc(CCCN4CCN(c5nsc6ccccc56)CC4)ccc3[nH]c2=O)C1` gave a melting point of 206 to 208 °C.
`O=[N+]([O-])c1cc(Cl)ccc1/C=C/c1ccc(Cl)cc1[N+](=O)[O-]` gave a melting point of 247 to 248 °C.
In the case of `COC(=O)c1nc(OC)nc(OC)c1Cl`, the melting point is reported as 98 to 100 °C.
With `Cc1nc(C)c(N2N=C(c3ccc([N+](=O)[O-])cc3)c3cc4c(cc3CC2C)OCO4)o1` (stereo unspecified) the melting point was 76 to 78 °C.
Work on `COc1ccc(-c2nc(N)sc2CCC2CCCCC2)c(OC)c1` yielded a melting point of 122 °C.
`N#Cc1cc2c(c(-c3ccccc3Cl)c1)OC(CN)C2` (stereo unspecified) gave a melting point of 173 to 175 °C.
Work on `O=C(Nc1c([N+](=O)[O-])ccc2c3c(oc12)CCCC3)c1c(Cl)cccc1Cl` yielded a melting point of 246 to 248 °C.
Molecule `COc1ccc(-c2n[nH]c3c2sc2ccccc23)cc1` has a melting point of 185 to 187 °C.
Molecule `C[C@H]1NC(=O)[C@H]1N(NC(=O)OC(C)(C)C)C(=O)OC(C)(C)C` has a melting point of 147 to 149 °C.
With `Cc1cc2c(S(C)(=O)=O)nc(OCC(F)(F)F)nc2s1` the melting point was 138 to 140 °C.
`CC(C)(C)OC(=O)CNNC(=O)OCc1ccccc1` gave a melting point of 61 to 62 °C.
For `Nn1c(C(F)(F)F)cc(=O)n(-c2c(F)cc(Cl)c3c2ONC3c2ccccc2)c1=O` (stereo unspecified), the melting point was 171 to 173 °C.
With `Cc1nc(N=CN(C)C)sc1C` the melting point was 47 to 58 °C.
Molecule `CCOCc1nc2c(N)nc(C)c(C)c2n1CCOCCCc1cccnc1` has a melting point of 78 to 78.5 °C.
In the case of `COc1ccc(C=CC(=O)N2CCN(c3nc(N)c4cc(OC)c(OC)cc4n3)CC2)cc1OC`, the melting point is reported as 140 °C.
`CON=C(c1ccccc1O)n1ccnc1` showed a melting point of 104 °C.
Work on `Cn1ccnc1S(=O)c1ccc(Cl)cc1` (stereo unspecified) yielded a melting point of 96 to 97 °C.
Work on `CCOC(=O)c1cc2c3c(c(-c4ccccc4Cl)cc2n1CCCOC)C(=O)NC3=O` yielded a melting point of 235 to 237 °C.
`N#Cc1ccc(Cn2cncn2)cc1-c1ccc(Cl)c(OS(N)(=O)=O)c1` showed a melting point of 148 to 150 °C.
In the case of `O=[N+]([O-])c1cnccc1Nn1ccc2ccccc21`, the melting point is reported as 170 to 172 °C.
`CCN(CC)c1cc(C)nc(Oc2c(C)cc(C)cc2C)c1C` gave a melting point of 180 to 181 °C.
Work on `CCC(C#N)c1nsc2ccc(-n3c(=O)cc(C(F)(F)F)n(C)c3=O)cc12` (stereo unspecified) yielded a melting point of 107 to 109 °C.
For `ClCCN1C2CCC1CC(c1ccc3ccccc3c1)C2` (stereo unspecified), the melting point was 84 to 88 °C.
With `COC(=O)CNC(=O)OC1c2ccccc2C(=O)N1c1ccc2ccc(Cl)nc2n1` (stereo unspecified) the melting point was 208 to 210 °C.
In the case of `Cc1c(Cc2cccnc2)c2ccccc2n1CCc1nnn[nH]1`, the melting point is reported as 173 °C.
Work on `COC(C)c1cc(S(N)(=O)=S)sc1C` (stereo unspecified) yielded a melting point of 86 to 94 °C.
Work on `CN(C)S(=O)(=O)c1cc([N+](=O)[O-])ccc1C(=O)O` yielded a melting point of 160 to 163 °C.
For `O=S(Sc1ccccc1)c1ccccc1` (stereo unspecified), the melting point was 69 to 70 °C.
With `O=C(O)Cc1c(C(=O)c2cc(Cl)ccn2)[nH]c2ccc(Cl)cc12` the melting point was 243 to 244 °C.
With `CCN(C(=O)OCc1ccccc1)c1cc(Cl)c2c(c1)C(c1ccccc1F)=NC(C)(C)C(=O)N2C` the melting point was 150 to 151 °C.
Molecule `O=C(Nc1cccc([N+](=O)[O-])c1)C(Br)CCBr` (racemic) has a melting point of 75 to 76 °C.
